Measured values reported in patent US10954287B2, “Ras binding peptides and methods of use” (Ra Pharmaceuticals, Inc., priority 2016, dated 2021).
Read-outs that look alike come from different tables or passages of the source.

Legend:
[1] = tested on: GMPPNP-loaded H-Ras or GTP-loaded K-Ras; assay: Fluorescence polarization competition assay with TAMRA-labeled probe R4007; assay type: binding, human; conditions: 120 nM Ras
In short: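 120 nM GMPPNP-loaded H-Ras or GTP-loaded K-Ras was preincubated with 30 nM TAMRA-labeled R4007 probe for 20 min at room temperature in Tris pH 7.5 buffer with MgCl2, EDTA and Triton X-100. Serially diluted competitor was then added for 60 min. Polarization was read at 535/595 nm, with Ki from a one-site Ki fit and IC50 from probe displacement.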

[2] = molecular target: T1, K-Ras G12D (Homo sapiens, UniProt P01116, G12D); assay: Surface plasmon resonance (SPR) binding to immobilized K-Ras; conditions: for Kd / kd / kon: 25° C.; for kon: read-out: ka
T1 construct: For K-Ras, the construct was full-length; made in house
Experimental: Surface Plasmon Resonance (SPR) experiments were conducted at 25° C. using the ProteOn XPR36 system from BioRad Laboratories, Inc (Hercules, Calif.). […] Kinetic characterization of cyclomimetic binding was performed to determine kon, koff, and Kd. […] was co-injected with RAF-RBD to evaluate competitive binding. Data analysis was performed using BioRad ProteOn Manager software.

[3] = molecular target: T2, H-Ras (Homo sapiens, UniProt P01112, G12V); assay: Differential scanning fluorimetry (DSF); assay type: binding; conditions: Ras 5 μM, peptide 20 μM, FIG. 8A
T2 construct: made in house; host or cells: E. coli BL21 (DE3)
Experimental: Differential scanning fluorimetry (DSF) is based on denaturation of the protein in the absence or presence of a ligand, exposing hydrophobic residues that can be detected with high sensitivity with a fluorescent dye. […] DSF was performed on a CFX 96-well plate, real-time PCR instrument (Bio-Rad, Hercules, Calif.) according to Nettleship et al. [Nettleship, J. E., Brown, J., Groves, M. R., and Geerlof, A. (2008) Methods for protein characterization by mass spectrometry, thermal shift (ThermoFluor) assay, and multiangle or static light scattering. Methods Mol. Biol. 426: 299-318), the contents of which are incorporated herein by reference in their entirety]. SYPRO orange was purchased from Life Technologies (Carlsbad, Calif.). After incubation of Ras (5 μM) and peptide (20 μM) at room temperature for 15 minutes in 20 mM Tris-HCl (pH 8), 150 mM NaCl, 1 mM MgCl2, 2 mM DTT, and 0.2% dimethyl sulfoxide, SYPRO orange was added to the final concentration of 10× (original stock at 5000×). The mixture was subsequently heated in Bio-Rad CFX 96 PCR instrument from 25 to 95° C. in increments of 0.3° C./10 s. Fluorescence intensity was measured using excitation and emission wavelengths of 483 and 610 nm, respectively. Changes in protein thermal stability (ATm) upon peptide binding were analyzed by using Bio-Rad CFX Manager Software provided by the manufacturer.

**Q.** `CCC[C@H](NC(C)=O)C(=O)N[C@H]1CSCc2cccc(c2)CSC[C@@H](C(N)=O)NC(=O)CN(C)C(=O)[C@H](Cc2ccc(F)cc2)N(C)C(=O)[C@H](Cc2ccc(O)cc2)NC(=O)[C@H](Cc2c[nH]c3ncccc23)NC(=O)[C@H](c2ccccc2)NC(=O)[C@H](C)N(C)C(=O)[C@H](Cc2cnc[nH]2)NC(=O)[C@H](CCCCN)NC(=O)[C@H](C(C)(C)C)NC(=O)[C@H](Cc2ccc(O)cc2)NC1=O` (relative stereo) [Compound R4000, ACE-NVA-CYS*-TYR-TBG-LYS-HIS-NMA-PHG-7AW-TYR-MFF-SAR-CYS*-NH2] was tested. Which IC50 ([1]; 30 nM R4007, FIG. 7B, read-out: half-maximal inhibitory concentration (IC50) for displacement of R4007) did it give?
**A.** 20 nM

**Q.** What about the IC50 ([1]; 30 nM probe R4007, 60 minutes at room temperature, read-out: Probe displacement (nM IC50)) of the same compound?
**A.** 28.6 nM

**Q.** And the Kd ([2]; K-Ras G12D loaded with GDP)?
**A.** 4.4 nM

**Q.** What about the kd ([2]; K-Ras G12D loaded with GDP) of the same compound?
**A.** 0.003 s⁻¹

**Q.** And the kon ([2]; K-Ras G12D loaded with GDP)?
**A.** 680000 M⁻¹ s⁻¹

**Q.** What about the Kd ([2]; K-Ras G12D loaded with GMPPNP) of the same compound?
**A.** 2.8 nM

**Q.** And the kd ([2]; K-Ras G12D loaded with GMPPNP)?
**A.** 0.0016 s⁻¹

**Q.** What about the kon ([2]; K-Ras G12D loaded with GMPPNP) of the same compound?
**A.** 570000 M⁻¹ s⁻¹

**Q.** What about the “competitive binding on co-injection with RAF-RBD” value ([2]; R4000 co-injected with RAF-RBD, FIG. 7A) of the same compound?
**A.** additive signals

**Q.** What about the “Δ Tm” value [3] of the same compound?
**A.** +11 °C
